Patent US10913727B2, “Modulators of the integrated stress pathway” (Calico Life Sciences LLC, priority 2016, dated 2021)

system: HEK293T cells carrying the ATF4 luciferase reporter; test: ATF4-Luc assay, in vitro model of Vanishing Cell White Matter Disease (VWMD); type: cell-based; details: Homo sapiens, HEK-293T, 1 μg/mL tunicamycin, 7 hours, One Glo luminescence
Summary of the method: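 Reporter cells were stably generated by retroviral transduction and puromycin selection, then seeded at 30,000 cells/well. Next day, cells received 1 μg/mL tunicamycin with 200 nM test compound for 7 h, and luciferase luminescence was read with a one-step reagent. Values reported as EC50.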

`O=C(COc1ccc(Cl)c(Cl)c1)NC12CC(NC(=O)c3cc(OC(F)F)ccn3)(C1)C2` [Compound 716, N-{3-[2-(3,4-dichlorophenoxy)acetamido]bicyclo[1.1.1]pentan-1-yl}-4-(difluoromethoxy)pyridine-2-carboxamide] and `O=C(COc1ccc(Cl)c(Cl)c1)NC12CC(NC(=O)c3ccncn3)(C1)C2` [Compound 261, N-{3-[2-(3,4-dichlorophenoxy)acetamido]bicyclo[1.1.1]pentan-1-yl}pyrimidine-4-carboxamide] fall in the same range of EC50: 250 to 1000 nM for the first, 250 to 1000 nM for the second.

Compared with `O=C(COc1ccc(Cl)c(F)c1)NC12CC(NC(=O)c3cnc4sccc4c3)(C1)C2` [Compound 723, N-{3-[2-(4-chloro-3-fluorophenoxy)acetamido]bicyclo[1.1.1]pentan-1-yl}thieno[2,3-b]pyridine-5-carboxamide], `Cc1cncc(C(=O)NC23CC(NC(=O)COc4ccc(Cl)c(F)c4)(C2)C3)c1` [Compound 644, N-{3-[2-(4-chloro-3-fluorophenoxy)acetamido]bicyclo[1.1.1]pentan-1-yl}-5-methylpyridine-3-carboxamide] is lower in EC50: 250 to 1000 nM for the first, 50 to 250 nM for the second.

First: Cc1nc(C)c(C(=O)NC23CC(NC(=O)COc4ccc(Cl)c(F)c4)(C2)C3)s1 [Compound 238, N-{3-[2-(4-chloro-3-fluorophenoxy)acetamido]bicyclo[1.1.1]pentan-1-yl}-2,4-dimethyl-1,3-thiazole-5-carboxamide]
Second: Cc1nn(C)c(C(=O)NC23CC(NC(=O)COc4ccc(Cl)c(F)c4)(C2)C3)c1F [Compound 499, N-{3-[2-(4-chloro-3-fluorophenoxy)acetamido]bicyclo[1.1.1]pentan-1-yl}-4-fluoro-1,3-dimethyl-1H-pyrazole-5-carboxamide]
The EC50 of the first is higher: 50 to 250 nM for the first, < 50 nM for the second. The second is the more potent here.

First: CCn1nc(C)cc1C(=O)NC12CC(NC(=O)COc3ccc(Cl)c(F)c3)(C1)C2 [Compound 359, N-{3-[2-(4-chloro-3-fluorophenoxy)acetamido]bicyclo[1.1.1]pentan-1-yl}-1-ethyl-3-methyl-1H-pyrazole-5-carboxamide]
Second: Cc1cc(C(=O)NC23CC(NC(=O)COc4ccc(Cl)c(F)c4)(C2)C3)sn1 [Compound 564, N-{3-[2-(4-chloro-3-fluorophenoxy)acetamido]bicyclo[1.1.1]pentan-1-yl}-3-methyl-1,2-thiazole-5-carboxamide]
The EC50 of the first is higher: 250 to 1000 nM for the first, 50 to 250 nM for the second. The second is the more potent here.

First: CN(C(=O)c1cnc(C(F)F)cn1)C12CC(NC(=O)COc3ccc(Cl)c(F)c3)(C1)C2 [Compound 352, N-{3-[2-(4-chloro-3-fluorophenoxy)acetamido]bicyclo[1.1.1]pentan-1-yl}-5-(difluoromethyl)-N-methylpyrazine-2-carboxamide]
Second: CC(C)c1ccc(C(=O)NC23CC(NC(=O)COc4ccc(Cl)c(F)c4)(C2)C3)cn1 [Compound 642, N-{3-[2-(4-chloro-3-fluorophenoxy)acetamido]bicyclo[1.1.1]pentan-1-yl}-6-(propan-2-yl)pyridine-3-carboxamide]
The EC50 of the first is lower: 50 to 250 nM for the first, 1000 to 2000 nM for the second.

First: CN1CCc2c(cccc2NC23CC(NC(=O)COc4ccc(Cl)c(F)c4)(C2)C3)C1 [Compound 491, 2-(4-chloro-3-fluorophenoxy)-N-{3-[(2-methyl-1,2,3,4-tetrahydroisoquinolin-5-yl)amino]bicyclo[1.1.1]pentan-1-yl}acetamide]
Second: N#Cc1cccc(C(=O)NC23CC(NC(=O)COc4ccc(Cl)c(F)c4)(C2)C3)c1 [Compound 366, N-{3-[2-(4-chloro-3-fluorophenoxy)acetamido]bicyclo[1.1.1]pentan-1-yl}-3-cyanobenzamide]
The EC50 of the first is higher: > 2000 nM for the first, 50 to 250 nM for the second.

`O=C(COc1ccc(Cl)c(F)c1)NC12CC(Nc3ccnc(N4CCOCC4)n3)(C1)C2` [Compound 721, 2-(4-chloro-3-fluorophenoxy)-N-(3-{[2-(morpholin-4-yl)pyrimidin-4-yl]amino}bicyclo[1.1.1]pentan-1-yl)acetamide] and `O=C(COc1ccc(Cl)c(F)c1)NC12CC(NC(=O)c3ccon3)(C1)C2` [Compound 820, N-{3-[2-(4-chloro-3-fluorophenoxy)acetamido]bicyclo[1.1.1]pentan-1-yl}-1,2-oxazole-3-carboxamide] cannot be ordered by EC50: > 2000 nM for the first, > 2000 nM for the second.

First: Cc1cc(C(=O)NC23CC(NC(=O)COc4ccc(Cl)c(F)c4)(C2)C3)ncc1Cl [Compound 664, 5-chloro-N-{3-[2-(4-chloro-3-fluorophenoxy)acetamido]bicyclo[1.1.1]pentan-1-yl}-4-methylpyridine-2-carboxamide]
Second: Cc1cnc2cc(C(=O)NC34CC(NC(=O)COc5ccc(Cl)c(F)c5)(C3)C4)nn2c1 [Compound 833, N-{3-[2-(4-chloro-3-fluorophenoxy)acetamido]bicyclo[1.1.1]pentan-1-yl}-6-methylpyrazolo[1,5-a]pyrimidine-2-carboxamide]
The EC50 of the first is lower: 250 to 1000 nM for the first, 1000 to 2000 nM for the second. The first is the more potent here.

First: O=C(COc1ccc(Cl)c(F)c1)NC12CC(NC(=O)c3ccc4cnccc4n3)(C1)C2 [Compound 659, N-{3-[2-(4-chloro-3-fluorophenoxy)acetamido]bicyclo[1.1.1]pentan-1-yl}-1,6-naphthyridine-2-carboxamide]
Second: O=C(COc1ccc(Cl)c(F)c1)NC12CC(NC(=O)c3ccc(CO)nc3)(C1)C2 [Compound 718, N-{3-[2-(4-chloro-3-fluorophenoxy)acetamido]bicyclo[1.1.1]pentan-1-yl}-6-(hydroxymethyl)pyridine-3-carboxamide]
The EC50 of the first is lower: 50 to 250 nM for the first, 250 to 1000 nM for the second. The first is the more potent here.

First: O=C(COc1ccc(Cl)c(Cl)c1)NC12CC(NC(=O)c3ccccc3)(C1)C2 [Compound 521, N-{3-[2-(3,4-dichlorophenoxy)acetamido]bicyclo[1.1.1]pentan-1-yl}benzamide]
Second: O=C(COc1ccc(Cl)c(F)c1)NC12CC(NC(=O)c3cccc(CO)c3)(C1)C2 [Compound 419, N-{3-[2-(4-chloro-3-fluorophenoxy)acetamido]bicyclo[1.1.1]pentan-1-yl}-3-(hydroxymethyl)benzamide]
The EC50 of the first is lower: 50 to 250 nM for the first, 250 to 1000 nM for the second. The first is the more potent here.

First: O=C(COc1ccc(Cl)c(F)c1)NC12CC(NC(=O)c3ccc4c(c3)OCO4)(C1)C2 [Compound 239, N-{3-[2-(4-chloro-3-fluorophenoxy)acetamido]bicyclo[1.1.1]pentan-1-yl}-2H-1,3-benzodioxole-5-carboxamide]
Second: COc1ccc(F)c(C(=O)NC23CC(NC(=O)COc4ccc(Cl)c(F)c4)(C2)C3)c1 [Compound 520, N-{3-[2-(4-chloro-3-fluorophenoxy)acetamido]bicyclo[1.1.1]pentan-1-yl}-2-fluoro-5-methoxybenzamide]
The EC50 of the first is lower: 50 to 250 nM for the first, 250 to 1000 nM for the second. The first is the more potent here.

`Cc1nc(C(=O)NC23CCC(NC(=O)COc4ccc(Cl)c(Cl)c4)(CC2)[C@@H](O)C3)cs1` [Compound 701, N-{(3S)-4-[2-(3,4-dichlorophenoxy)acetamido]-3-hydroxybicyclo[2.2.2]octan-1-yl}-2-methyl-1,3-thiazole-4-carboxamide] and `Cc1cccc(C(=O)NC23CCC(NC(=O)COc4ccc(Cl)c(F)c4)(CC2)C(O)C3)n1` (stereo not shown) [Compound 914, N-{4-[2-(4-chloro-3-fluorophenoxy)acetamido]-3-hydroxybicyclo[2.2.2]octan-1-yl}-6-methylpyridine-2-carboxamide] fall in the same range of EC50: 50 to 250 nM for the first, 50 to 250 nM for the second.

Going from `O=C(COc1ccc(Cl)c(F)c1)NC12CCC(NC(=O)c3cc(O)no3)(CC1)CC2O` (stereo not shown) [Compound 411, N-{4-[2-(4-chloro-3-fluorophenoxy)acetamido]-3-hydroxybicyclo[2.2.2]octan-1-yl}-3-hydroxy-1,2-oxazole-5-carboxamide] to `O=C(COc1ccc(Cl)c(F)c1)NC12CCC(NC(=O)c3cccs3)(CC1)CC2O` (stereo not shown) [Compound 611, N-{4-[2-(4-chloro-3-fluorophenoxy)acetamido]-3-hydroxybicyclo[2.2.2]octan-1-yl}thiophene-2-carboxamide], the EC50 falls from > 2000 nM to < 50 nM. The second is the more potent here.

First: O=C(COc1ccc(Cl)c(F)c1)NC12CCC(NC(=O)c3cnccn3)(CC1)C[C@@H]2O [Compound 670, N-{(3S)-4-[2-(4-chloro-3-fluorophenoxy)acetamido]-3-hydroxybicyclo[2.2.2]octan-1-yl}pyrazine-2-carboxamide]
Second: Cc1nc(C(=O)NC23CCC(NC(=O)COc4ccc(Cl)c(F)c4)(CC2)C(O)C3)ccc1C#N (stereo not shown) [Compound 916, N-{4-[2-(4-chloro-3-fluorophenoxy)acetamido]-3-hydroxybicyclo[2.2.2]octan-1-yl}-5-cyano-6-methylpyridine-2-carboxamide]
The EC50 of the first is lower: < 50 nM for the first, 50 to 250 nM for the second.

First: O=C(COc1ccc(Cl)c(F)c1)NC12CCC(Nc3nccn4cnnc34)(CC1)[C@H](O)C2 [Compound 464, 2-(4-chloro-3-fluorophenoxy)-N-{(3R)-3-hydroxy-4-[([1,2,4]triazolo[4,3-a]pyrazin-8-yl)amino]bicyclo[2.2.2]octan-1-yl}acetamide]
Second: O=C(COc1ccc(Cl)c(F)c1)NC12CC(NC(=O)c3cnc(C4CCC(F)(F)CC4)o3)(C1)C2 [Compound 126, N-{3-[2-(4-chloro-3-fluorophenoxy)acetamido]bicyclo[1.1.1]pentan-1-yl}-2-(4,4-difluorocyclohexyl)-1,3-oxazole-5-carboxamide]
The EC50 of the first is higher: > 2000 nM for the first, 50 to 250 nM for the second. The second is the more potent here.

First: Cc1c(-c2cc(C(=O)NC34CC(NC(=O)COc5ccc(Cl)c(F)c5)(C3)C4)no2)cnn1C [Compound 840, N-{3-[2-(4-chloro-3-fluorophenoxy)acetamido]bicyclo[1.1.1]pentan-1-yl}-5-(1,5-dimethyl-1H-pyrazol-4-yl)-1,2-oxazole-3-carboxamide]
Second: CCc1ncc(C(=O)NC23CC(NC(=O)COc4ccc(Cl)c(F)c4)(C2)C3)s1 [Compound 292, N-{3-[2-(4-chloro-3-fluorophenoxy)acetamido]bicyclo[1.1.1]pentan-1-yl}-2-ethyl-1,3-thiazole-5-carboxamide]
The EC50 of the first is higher: 1000 to 2000 nM for the first, 50 to 250 nM for the second. The second is the more potent here.

Compared with `CSc1ccccc1C(=O)NC12CC(NC(=O)COc3ccc(Cl)c(F)c3)(C1)C2` [Compound 866, N-{3-[2-(4-chloro-3-fluorophenoxy)acetamido]bicyclo[1.1.1]pentan-1-yl}-2-(methylsulfanyl)benzamide], `O=C(COc1ccc(Cl)c(Cl)c1)NC12CC(NC(=O)c3csc(C(F)(F)F)n3)(C1)C2` [Compound 676, N-{3-[2-(3,4-dichlorophenoxy)acetamido]bicyclo[1.1.1]pentan-1-yl}-2-(trifluoromethyl)-1,3-thiazole-4-carboxamide] is lower in EC50: > 2000 nM for the first, < 50 nM for the second. The second is the more potent here.
